Measurements published in paper PMC4595804, “A strategy to discover decoy chemokine ligands with an anti-inflammatory activity” (Scientific Reports, 2015).
Where two headings read alike, the source gives them in different places.

Legend:
CCL22 [1] = molecular target: T1, CCL22 (Homo sapiens, UniProt O00626); test: CCL22-induced EGFP-CCR4 receptor internalization (flow cytometry); format: cell-based; conditions: 100 nM CCL22, 30 min, 0.03–3 μM compound; read-out: half-maximal efficiency, reduction of CCL22-induced CCR4 internalization
T1 construct: codes for the mature CCL17 or CCL22 with an N-terminal thioredoxin-hexahistidin (TRX- (His)6) tag; thioredoxin (TRX) (N, cleaved yes); (His)6 (N, cleaved yes); made in house; host or cells: E. coli BL21 (DE3)
T1 sequence (O00626 25-93): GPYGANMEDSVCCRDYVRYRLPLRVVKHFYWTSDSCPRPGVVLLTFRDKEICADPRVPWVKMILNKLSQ
Experimental: Figure 6 (a) Selectivity of CCL17 and CCL22 neutraligands towards 10 chemokines according to the “neutraligand protocol”. […] Each column represents the mean (block) ± SD (bars) of n = 3 experiments performed in triplicate. *p < 0.05; **p < 0.01; ***p < 0.005 as compared to chemokine + DMSO. (b) Chemokine neutraligands inhibited CCR4 endocytosis induced by CCL22 or CCL17. EGFP-CCR4^+ HEK cells were incubated for 30 min with DMSO or chemokine (100 nM CCL22 or CCL17) in the presence or absence of test compounds. […] Cell surface EGFP-tagged CCR4 receptors were measured by EGFP antibody labeling and flow cytometry analysis. CCR4 internalization was expressed as a percentage of total receptor surface expression calculated using control cells incubated with DMSO (100%). Each column represents the mean (block) ± SD (bars) of n = 3 experiments performed in triplicate. *p < 0.05; **p < 0.01; ***p < 0.005 as compared to chemokine alone. (c,d) Inhibition of CCL17 and CCL22- induced CCR4^+HUT78 T cell chemotaxis by neutraligands. […] The number of migrating cells in the presence of chemokine and compounds were expressed as the corresponding percentages. Results were analyzed by fitting the experimental curves (% of migrating cells vs log compound concentration) using the Kaleidagraph software program, and the corresponding IC50 values were calculated. […]

CCL22 [2] = molecular target: T1, CCL22; test: Scratch wound assay, CCL22-mediated HaCat cell migration; format: cell-based; conditions: HaCat cells, 72 h, read-out: inhibition of CCL22-mediated wound closure
Experimental: (§1) soluble formazan dye which can be detected by absorbance at 420-480nm. HUT78 T cells (or HaCat cells) were seeded on 24-well plates (200,000 cells per well) and were incubated […]
(§2) concentration ≤1% on cells). The background control was reserved as one well containing the culture medium only. The plates were incubated for 72h at 37°C. Three days later, the medium containing the neutraligands was removed, and WST-1 reagent (1:10 final dilution) (Ozyme) was added to each well for a 2h incubation at 37°C as the manufacturer’s recommendation. The plates were shaken and absorbance was measured at 450nm (reference wavelength 690nm) against the background control, using a multiwell plate reader (EnVision, Perkin Elmer). Assays were performed as three independent replicates.
(§3) In vitro cell migration assay (scratch wound test) […]
(§4) the wound closure was determined as the difference between wound width at times 0 and 72h. […]
(§5) doses). After 24h, cytotoxicity was evaluated in the wells using the Alamar Blue method. […]
(§6) before AA treatment. The activity of COX2 was determined by measuring PGE2 (Cayman) in the supernatants by EIA. […]

CCL22 [3] = molecular target: T1, CCL22; test: Tryptophan fluorescence assay on CCL22; format: binding
Experimental: Fluorescence measurements were performed on a spectrofluorometer (JobinYvon/Spex) in a quartz microcuvette at 20 °C. […] The fluorescence emission spectra were corrected by subtracting the emission scan of the compounds alone and data analysis was carried out with fluorescence intensities detected at 340 nm.

CCL17 = molecular target: T2, CCL17 (Homo sapiens, UniProt Q92583); test: Scratch wound assay, CCL17-mediated HaCat cell migration; format: cell-based; conditions: HaCat cells, 72 h, read-out: inhibition of CCL17-mediated wound closure
T2 construct: codes for the mature CCL17 or CCL22 with an N-terminal thioredoxin-hexahistidin (TRX- (His)6) tag; thioredoxin (TRX) (N, cleaved yes); (His)6 (N, cleaved yes); made in house; host or cells: E. coli BL21 (DE3)
T2 sequence (Q92583 24-94): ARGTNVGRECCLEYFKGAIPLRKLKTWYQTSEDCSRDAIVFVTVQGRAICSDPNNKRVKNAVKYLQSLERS
Experimental: as §1, §2, §3, §4, §5, §6

IC50 (CCL22 [1]) | inhibition at 10 µM (CCL22 [2]) | Kd (CCL22 [3]; 1.5 μM CCL22, tryptophan fluorescence at 340 nm, estimated, read-out: KD, high-affinity binding site class, on CCL22) | Kd (CCL22 [3]; […] CCL22, tryptophan fluorescence at 340 nm, read-out: KD, low-affinity binding site class, on CCL22) | Structure (SMILES) | inhibition at 10 µM (CCL17)
~0.1 µM | 85.2% | < 0.05 µM | 53 µM | O=C(OCC(O)CO)c1ccccc1O (centres unmarked) [GPN136, 2,3-dihydroxypropyl 2-hydroxybenzoate] | –
– | – | – | – | CC(C)=CCn1cnc2c1c(=O)n(C)c(=O)n2C [GPN279, 1,3-dimethyl-7-(3-methylbut-2-enyl)-1H-purine-2,6(3H, 7H)-dione] | 81.4%
